Test results: patent publication US7115611B2, “Phenyl derivatives, their manufacture and use as pharmaceutical agents” (Hoffmann-la Roche Inc., priority 2003, dated 2006)

Columns and labels:
PPARδ = molecular target: T1, PPARδ (Homo sapiens, UniProt Q03181); assay: PPARδ receptor radioligand binding assay (SPA); details: GST-PPARδ-LBD fusion protein on SPA beads
T1 construct: PPARδ (aa 139 to 442); made in house; host or cells: E. coli BL21 (pLysS)
T1 sequence (Q03181 139-441 limits assumed): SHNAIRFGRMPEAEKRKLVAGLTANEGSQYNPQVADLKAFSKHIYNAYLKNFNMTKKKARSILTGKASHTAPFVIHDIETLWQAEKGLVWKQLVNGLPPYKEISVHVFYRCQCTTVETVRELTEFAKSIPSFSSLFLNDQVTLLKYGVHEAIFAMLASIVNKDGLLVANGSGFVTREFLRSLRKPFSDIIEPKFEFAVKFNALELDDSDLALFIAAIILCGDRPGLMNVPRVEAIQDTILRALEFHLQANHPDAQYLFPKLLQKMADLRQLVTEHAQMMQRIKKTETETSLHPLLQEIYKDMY
Excerpt: (§1) Background information on the performed assays can be found in: Nichols J S et al. “Development of a scintillation proximity assay for peroxisome proliferator-activated receptor gamma ligand binding domain”, (1998) Anal. Biochem. 257:112–119.
(§2) Full-length cDNA clones for humans PPARδ and PPARα and mouse PPARγ were obtained by RT-PCR from human adipose and mouse liver cRNA, respectively, cloned into plasmid vectors and verified by DNA sequencing. Bacterial and mammalian expression vectors were constructed to produce glutathione-s-transferase (GST) and Gal4 DNA binding domain proteins fused to the ligand binding domains (LBD) of PPARδ (aa 139 to 442), PPARγ (aa 174 to 476) and PPARα (aa 167 to 469). To accomplish this, the portions of the cloned sequences encoding the LBDs were amplified from the full-length clones by PCR and then subcloned into the plasmid vectors. Final clones were verified by DNA sequence analysis.
(§3) Induction, expression, and purification of GST-LBD fusion proteins were performed in E. coli strain BL21 (pLysS) cells by standard methods (Ref: Current Protocols in Molecular Biology, Wiley Press, edited by Ausubel et al.).
PPARδ receptor binding was assayed in HNM10 (50 mM Hepes, pH 7.4, 10 mM NaCl, 5 mM MgCl2, 0.15 mg/ml fatty acid-free BSA and 15 mM DTT). For each 96 well reaction a 500 ng equivalent of GST-PPARδ-LBD fusion protein and radioligand, e.g. 20000 dpm {2-methyl-4-[4-methyl-2-(4-trifluoromethyl-phenyl)-thiazol-5-yl-ditritiomethylsulfanyl]-phenoxy}-acetic acid, was bound to 10 μg SPA beads (PharmaciaAmersham) in a final volume of 50 μl by shaking. The resulting slurry was incubated for 1 h at RT and centrifuged for 2 min at 1300 g. […] Radioligand was added and the reaction incubated at RT for 1 h and scintillation proximity counting performed in the presence of test compounds was determined. All binding assays were performed in 96 well plates and the amount of bound ligand was measured on a Packard TopCount using OptiPlates (Packard). […]

PPARγ = molecular target: T2, PPARγ (Mus musculus, UniProt P37238); assay: PPARγ receptor radioligand binding assay (SPA); details: GST-PPARγ-LBD fusion protein on SPA beads
T2 construct: PPARγ (aa 174 to 476); made in house; host or cells: E. coli BL21 (pLysS)
T2 sequence (P37238 174-475 isoform P37238-2): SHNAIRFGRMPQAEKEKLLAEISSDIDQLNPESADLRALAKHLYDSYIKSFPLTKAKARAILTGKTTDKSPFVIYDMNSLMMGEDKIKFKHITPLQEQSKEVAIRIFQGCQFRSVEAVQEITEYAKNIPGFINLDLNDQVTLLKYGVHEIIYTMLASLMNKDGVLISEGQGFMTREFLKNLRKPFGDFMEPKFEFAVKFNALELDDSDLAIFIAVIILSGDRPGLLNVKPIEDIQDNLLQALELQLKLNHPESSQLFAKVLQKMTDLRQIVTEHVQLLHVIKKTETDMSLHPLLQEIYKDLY
Excerpt: as §1, §2, §3
(§4) PPARγ receptor binding was assayed in TKE50 (50 mM Tris-HCl, pH 8, 50 mM KCl, 2 mM EDTA, 0.1 mg/ml fatty acid-free BSA and 10 mM DTT). For each 96 well reaction a 140 ng equivalent of GST-PPARγ-LBD fusion protein was bound to 10 μg SPA beads (PharmaciaAmersham) in a final volume of 50 ul by shaking. The resulting slurry was incubated for 1 h at RT and centrifuged for 2 min at 1300g. The supernatant containing unbound protein was removed and the semidry pellet containing the receptor-coated beads was resolved in 50 ul of TKE. […] All binding assays were performed in 96 well plates and the amount of bound ligand measured on a Packard TopCount using OptiPlates (Packard). Nonspecific binding was determined in the presence of 10^−4 M unlabelled compound. […]

PPARα = molecular target: T3, PPARα (Homo sapiens, UniProt Q07869); assay: PPARα receptor radioligand binding assay (SPA); details: GST-PPARα-LBD fusion protein on SPA beads
T3 construct: PPARα (aa 167 to 469); made in house; host or cells: E. coli BL21 (pLysS)
T3 sequence (Q07869 167-468 limits assumed): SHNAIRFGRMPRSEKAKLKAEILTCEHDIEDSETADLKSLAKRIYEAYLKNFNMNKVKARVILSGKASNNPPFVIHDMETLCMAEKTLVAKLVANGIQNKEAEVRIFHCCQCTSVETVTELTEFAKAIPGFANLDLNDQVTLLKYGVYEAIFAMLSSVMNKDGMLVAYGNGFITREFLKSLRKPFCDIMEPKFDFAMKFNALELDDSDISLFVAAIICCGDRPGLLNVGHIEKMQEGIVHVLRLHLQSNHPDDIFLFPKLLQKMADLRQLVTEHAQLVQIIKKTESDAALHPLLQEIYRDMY
Excerpt: as §1, §2, §3
as §4, with “PPARα receptor” for “PPARγ receptor”, “reaction an” for “reaction a”, “of GST-PPARα-LBD” for “of GST-PPARγ-LBD”, “50 μl” for “50 ul”, “at 1300 g.” for “at 1300g.”

| IC50 (PPARδ) [nM] | IC50 (PPARγ) [µM] | IC50 (PPARα) [nM] | melting point [°C] | Compound |
| --- | --- | --- | --- | --- |
| 2 | > 10 | 454 | – | Cc1cc(OC(C)c2ccc(-c3ccc(C(F)(F)F)cc3)nc2C)ccc1SCC(=O)O (racemic) [Example 20, [rac]-(2-Methyl-4-{1-[2-methyl-6-(4-trifluoromethyl-phenyl)-pyridin-3-yl]-ethoxy}-phenylsulfanyl)-acetic acid] |
| 26 | > 10 | 13 | 105 to 107 | Cc1cc(OCc2ccc(-c3cccc(C(F)(F)F)c3)nc2C)ccc1OC(C)(C)C(=O)O [Example 8, 2-Methyl-2-{2-methyl-4-[2-methyl-6-(3-trifluoromethyl-phenyl)-pyridin-3-ylmethoxy]-phenoxy}-propionic acid] |
| 31 | > 10 | 289 | – | Cc1cc(N(C)Cc2cnc(-c3ccc(C(F)(F)F)cc3)nc2C2CC2)ccc1OCC(=O)O [Example 27, (4-{[4-Cyclopropyl-2-(4-trifluoromethyl-phenyl)-pyrimidin-5-ylmethyl]-methyl-amino}-2-methyl-phenoxy)-acetic acid] |
